Source: patent publication US12233068B2, “Combination of active agents for the treatment of progressive fibrosing interstitial lung diseases (PF-ILD)” (Boehringer Ingelheim International GmbH, priority 2017, dated 2025)
Where two headings read alike, the source gives them in different places.

How the values were obtained:
[1] = system: FGF plus IL-1β-stimulated proliferation of human lung fibroblasts from patients with IPF; test: Cell proliferation assay (BrdU incorporation), Experiment B; format: cell-based; details: for IC50: n=5 donors; for IC50 of PDE4 inhibitor alone compared to IC50 of its combination with Nintedanib (proliferation): IC50 alone / IC50 with 100 nMol/L Nintedanib; for effect of the combination with Nintedanib on inhibition of fibroblast proliferation versus calculated additive curve: measured curve with 100 nMol/L Nintedanib compared with calculated additive curve (Poch & Holzmann)
Procedure: (§1) Lung fibroblasts of IPF-patients (IPF-LF cells) grown in 96-well plates were incubated for min with different concentrations of the PDE4 inhibitors “Compound of formula III”, “Apremilast” or “Roflumilast-N-Oxide” or with a combination of each of the aforementioned PDE4-inhibitors with Nintedanib.
(§2) After compound incubation cells were stimulated with the assay-relevant stimulus and incubated for the assay—relevant time in the presence of the test compounds.
BrdU incorporated in the DNA of proliferating cells was determined by ELISA. BrdU is an analog of the DNA precursor thymidine. In proliferating cells, the DNA has to be replicated before the division can take place. If BrdU is added to the cell culture, proliferating cells will incorporate it into their DNA just like they would incorporate thymidine. The amount of BrdU in the DNA of cells can be detected with specific anti-BrdU fluorescent antibodies followed by flow cytometry or by cellular ELISA with monoclonal antibodies against BrdU.
IPF-lung fibroblasts (passage 5 to 8) were seeded in 96-well cell culture plates at 2500 cells/well with 100 μL/well FBM+supplements. 24 h after seeding the cells were washed once with FBM medium without supplements and then kept in this medium for 24 h starvation.
In experiment B1) the PDE4B-inhibitor of formula III was used as a “test compound” • in rising concentrations either alone (see full circles and black solid curve in FIG. 4) or • in rising concentrations together with a fixed concentration of 100 nMol/L of Nintedanib (see empty circles and grey solid line in FIG. 4).
In experiment B2) Apremilast was used as a “test compound” • in rising concentrations either alone (see full circles and black solid curve in FIG. 5) or • in rising concentrations together with a fixed concentration of 100 nMol/L of Nintedanib (see empty circles and grey solid line in FIG. 5).
In experiment B3) Roflumilast-N-oxide was used as a “test compound” • in rising concentrations either alone (see full circles and black solid curve in FIG. 6) or • in rising concentrations together with a fixed concentration of 100 nMol/L of Nintedanib (see empty circles and grey solid line in FIG. 6).
All test compounds were prepared 1000× in 0.1 mmol/L HCl or DMSO and a 1:3.16 dilution series was performed (in 0.1 mmol/L HCl or DMSO). To obtain 1× concentrated compound medium 1 μl of the 1000×DMSO dilution was added to 999 μl FBM.
48 h after seeding, medium was removed by suction and 90 μl compound- or starvation medium was added for 30 min
30 min after test compound pre-incubation (90 μL), 10 μl of 10× concentrated FGF plus IL-1β was added and the cells were stimulated for 92 h at a temperature of 37° C.
For this purpose the FGF and IL-1β stock solutions (250 μg/mL and 10 μg/mL respectively) were diluted in starvation medium to reach a concentration of 200 ng/mL and 300 pg/mL for FGF and IL-1β respectively. 10 μL of this stimulus medium or starvation medium was added to the indicated wells. The test compound concentration was maintained during the stimulation.
The final FGF concentration was 20 ng/mL. The final IL-1β concentration was 30 pg/mL.
Proliferation was determined by a colorimetric immunoassay for the quantification of cell proliferation, based on the measurement of BrdU incorporation during DNA synthesis. The assay was carried out according to the manufacturer's instructions.
72 h after stimulation a 1:100 dilution of BrdU in starvation medium (resulting concentration 100 μmol/L) was performed and 10 μl added per well (end-concentration per well 10 μmol/l). About 18 h later the BrdU medium was removed by suction. Cells were fixed and denatured for 30 min at room temperature with FixDenat reagent. The reagent was removed by tapping and the anti-BrdU-POD working solution was added (incubation time: 90 min). The plate was washed three times with 200 μL washing buffer before incubation with substrate solution for about 10 min. […]

[2] = system: TGF-β-stimulated α-SMA protein expression of human lung fibroblasts from patients with IPF; test: α-SMA (smooth muscle actin) protein assay (Western replacement assay, MSD), Experiment A; format: cell-based; details: for IC50: n=5 donors; for sign of inhibition of TGF-β-stimulated α-SMA protein expression over the concentration/inhibition curve: low PDE4-inhibitor concentrations, alone or in combination with Nintedanib
Procedure: as §1, §2
α-SMA protein was determined by a Western-replacement assay (MSD) using monoclonal anti smooth muscle actin antibodies.
IPF-lung fibroblasts (passage 5 to 8) were seeded in 96-well cell culture plates at 4500 cells/well with 100 μL/well FBM+supplements. 24 h after seeding the cells were washed once with FBM medium without supplements and starved for 24 h.
In experiment A1) the PDE4B-inhibitor of formula III was used as a “test compound” • in rising concentrations either alone (see full circles and black solid curve in FIG. 1) or • in rising concentrations together with a fixed concentration of 100 nMol/L of Nintedanib (see empty circles and grey solid line in FIG. 1). Experiment A2)
In experiment A2) Apremilast was used as a “test compound” • in rising concentrations either alone (see full circles and black solid curve in FIG. 2) or • in rising concentrations together with a fixed concentration of 100 nMol/L of Nintedanib (see empty circles and grey solid line in FIG. 2). Experiment A3)
In experiment A3) Roflumilast-N-oxide was used as a “test compound” • in rising concentrations either alone (see full circles and black solid curve in FIG. 3) or • in rising concentrations together with a fixed concentration of 100 nMol/L of Nintedanib (see empty circles and grey solid line in FIG. 3). Test Compound Dilutions
All “test compounds” (the PDE4B-inhibitor of formula III, Apremilast or Roflumilast) were prepared 1000× in 0.1 mmol/L HCl or DMSO and a 1:3.16 dilution series was performed (in 0.1 mmol/L HCl or DMSO). To obtain 2× concentrated compound-medium a 1:500 dilution (2 μl of the 1000× dilution was added to 998 μl FBM plus 2 nmol/L PGE2) was prepared.
48 h after seeding, the medium was aspirated and FBM (100 μl per well) was added. After 1 h incubation at 37° C., 90 μl medium containing 2× concentrated compounds (at different concentrations) plus 2× concentrated PGE2 (2 nmol/L) was added for 30 min Final concentration for PGE2 was 1 nmol/L.
30 min after test compound pre-incubation (190 μL), 10 μl of 20× concentrated TGF-β was added and the cells stimulated for 48 h at a temperature of 37° C.
For this purpose the TGF-β stock solution (20 μg/mL reconstituted in 4 mmol/L sterile HCL) was diluted 1:200 in starvation medium to reach a concentration of 100 ng/mL. 10 μL of this TGF-β medium or starvation medium was added to indicated wells. The test compound concentration was maintained during the stimulation. The final TGF-β concentration was […].
48 h after stimulation supernatants were removed and stored at −80° C. for further experiments. Cells were washed once with ice cold PBS and 50 μl RIPA buffer containing 1× protease inhibitor was added per well. Lysates were incubated for 5 minutes on ice before stored at −80° C.
After thawing, 25 μl of each lysate was transferred to the membrane of the multi-array 96 well plate (MSD) and incubated for 2 h at room temperature with gentle shaking. After the incubation time, plates were washed 3 times with 200 μl 1× Tris-wash buffer (MSD) and 150 μl of 3% blocking buffer was added for 1 h. After blocking, plates were washed 3 times with 200 μl 1× Tris-wash buffer and 25 μl of the antibody solution (per plate 0.75 ml 3% blocking buffer, 2.25 ml 1× Tris-wash buffer, 1.2 μl anti-α-SMA antibody (1:2500), 15 μl goat anti-mouse sulfo-tag antibody (1:200) was added for 1 h. After AB-incubation plates were washed 3 times with 200 μl 1× Tris-wash buffer and 150 μl of 1×MSD read buffer was added per well. Plates were measured with Sector Imager (MSD). […]

[3] = system: human COPD-patients; details: 500 μg daily; cited from earlier work
[4] = system: rat; details: in vivo; cited from earlier work

SMILES: CCOc1cc([C@@H](CS(C)(=O)=O)N2C(=O)c3cccc(NC(C)=O)c3C2=O)ccc1OC [Apremilast]
- IC50 ([1]; Homo sapiens, Fibroblast, PDE4 inhibitor alone, IPF lung fibroblasts, read-out: IC50, inhibition of FGF plus IL-1β-stimulated proliferation): 1800 nM
- IC50 ([1]; Homo sapiens, Fibroblast, PDE4 inhibitor in rising concentrations with fixed 100 nMol/L Nintedanib, read-out: IC50, inhibition of FGF plus IL-1β-stimulated proliferation, combination with Nintedanib): 1600 nM
- IC50 of PDE4 inhibitor alone compared to IC50 of its combination with Nintedanib (proliferation) [1]: 1.13 fold
- effect of the combination with Nintedanib on inhibition of fibroblast proliferation versus calculated additive curve [1]: additive effect
- IC50 ([2]; Homo sapiens, Fibroblast, PDE4 inhibitor alone, IPF lung fibroblasts, read-out: IC50, inhibition of TGF-β-stimulated α-SMA protein expression): 3000 nM
- IC50 ([2]; Homo sapiens, Fibroblast, PDE4 inhibitor in rising concentrations with fixed 100 nMol/L Nintedanib, read-out: IC50, inhibition of TGF-β-stimulated α-SMA protein expression, combination with Nintedanib): 2000 nM
- sign of inhibition of TGF-β-stimulated α-SMA protein expression over the concentration/inhibition curve [2]: negative inhibitions

SMILES: COC(=O)c1ccc2c(c1)NC(=O)/C2=C(\Nc1ccc(N(C)C(=O)CN2CCN(C)CC2)cc1)c1ccccc1 [Nintedanib]
- inhibitory effect on human lung fibroblasts proliferation (in words) ([1]; Nintedanib alone, 100 nMol/L): clear inhibitory effect
- inhibitory effect on TGF-β-stimulated α-SMA protein expression (in words) ([2]; 100 nM Nintedanib alone): no inhibitory effect
- Inhibition of TGF-β-stimulated α-SMA protein expression ([2]; 100 nMol/L Nintedanib alone, FIGS. 1, 2 and 3): ≤ 0

SMILES: O=C(Nc1c(Cl)c[n+]([O-])cc1Cl)c1ccc(OC(F)F)c(OCC2CC2)c1 [Roflumilast N-Oxide]
- IC50 of PDE4 inhibitor alone compared to IC50 of its combination with Nintedanib (proliferation) [1]: 0.82 fold
- IC50 ([1]; PDE4 inhibitor alone, IPF lung fibroblasts, read-out: IC50, inhibition of FGF plus IL-1β-stimulated proliferation): 0.44 nM
- IC50 ([1]; PDE4 inhibitor in rising concentrations with fixed 100 nMol/L Nintedanib, read-out: IC50, inhibition of FGF plus IL-1β-stimulated proliferation, combination with Nintedanib): 0.534 nM
- effect of the combination with Nintedanib on inhibition of fibroblast proliferation versus calculated additive curve [1]: additive effect
- IC50 ([2]; PDE4 inhibitor alone, IPF lung fibroblasts, read-out: IC50, inhibition of TGF-β-stimulated α-SMA protein expression): 14 nM
- IC50 ([2]; PDE4 inhibitor in rising concentrations with fixed 100 nMol/L Nintedanib, read-out: IC50, inhibition of TGF-β-stimulated α-SMA protein expression, combination with Nintedanib): 8.5 nM
- sign of inhibition of TGF-β-stimulated α-SMA protein expression over the concentration/inhibition curve [2]: negative inhibitions

SMILES: O=C(Nc1c(Cl)cncc1Cl)c1ccc(OC(F)F)c(OCC2CC2)c1 [Roflumilast]
- patients with decreased weight [3]: 7.5%
- patients with diarrhea [3]: 9.5%
- patients with headache [3]: 4.4%
- patients with nausea [3]: 4.7%
- gastrointestinal side effects in similar gastric emptying and intestinal transit experiments [4]: clear trend to show gastrointestinal side effects
